# Source: ChEMBL document CHEMBL1142059, “Excelsione, a depsidone from an endophytic fungus isolated from the New Zealand endemic tree Knightia excelsa” (J Nat Prod, 2007)
# System: P388
# Test: Cytotoxicity against mouse P388 cells at 12.5 ug/mL; call rule not given here
# Type: cell-based
structure (smiles),measurement,value
Cc1cc(O)c(CO)c2c1C(=O)Oc1c(C)c3c(c(O)c1O2)C(=O)OC3 [EXCELSIONE],Activity,Not Active
